Laboratory results published in publication PMC8589634 (The Journal of Prevention of Alzheimer's Disease, 2021).
Each block holds one molecule with its values, some of them ahead of it.

Legend:
PSEN1-AD neurons = conditions: screen of existing drug library; earlier work of the authors; cited from earlier work
AD and PD patients = test: Posiphen phase 2a studies in AD and PD; type: in vivo, human
[1] = test system: patients with mild or mild/moderate AD; test: LMTM Phase 3 exposure groups against historical placebo meta-analysis; type: in vivo, human; conditions: 8mg/day
healthy volunteers [2] = test system: healthy volunteers
patients with MCI or PD [3] = test: Safety and tolerability of single doses of clenbuterol; type: in vivo, human
AD patients = conditions: cited from earlier work
[4] = test system: patients with agitation in Alzheimer’s dementia; test: Brexpiprazole phase 3 studies, post-hoc CMAI-IPA; type: in vivo, human
[5] = test system: patients with agitation in Alzheimer’s dementia; test: Brexpiprazole phase 3 pooled CGI-S and CMAI responder analysis; type: in vivo, human
[6] = test system: patients with PD psychosis and PD dementia; test: HARMONY trial, post hoc PD dementia subgroup; type: in vivo, human
[7] = test system: subjects with moderate AD; test: Masupirdine phase-2 trial, NPI-12 psychosis subgroup analysis; type: in vivo, human
[8] = test system: subjects with moderate AD; test: Masupirdine phase-2 trial, NPI-12 agitation/aggression subgroup analysis; type: in vivo, human
healthy volunteers [9] = test: Brain spectroscopy after NR supplementation; type: in vivo, human; conditions: two weeks of NR supplementation
patients with MCI or PD [10] = test: Cerebral blood flow by pCASL MRI after clenbuterol; type: in vivo, human
[11] = test system: patients with AD and agitation/aggression; test: Lit-AD randomized trial of low-dose lithium; type: in vivo, human
[12] = test system: patients with mild-to-moderate AD; test: Open-label study of simufilam, interim analysis; type: in vivo, human
GRN mutation carriers = conditions: repeat administration; earlier Phase 2 study; cited from earlier work
[13] = first dose 80µg, 3 hours post-dose, n=8
[14] = second visit, 1mg nadolol 2.5 hours before clenbuterol, n=4
[15] = second visit, clenbuterol monotherapy, n=4
[16] = 80µg single dose, patients affected

Molecule: CC(C)C[C@H]1C(=O)N2CCC[C@H]2[C@]2(O)O[C@](NC(=O)[C@@H]3C=C4c5cccc6[nH]c(Br)c(c56)C[C@H]4N(C)C3)(C(C)C)C(=O)N12 [bromocriptine]
- modification of Aβ production (PSEN1-AD neurons): most potent modifier of Aβ production

Molecule: CN1CC[C@]2(C)c3cc(OC(=O)Nc4ccccc4)ccc3N(C)[C@H]12 [Posiphen]
- Aβ42/40 ratio (AD and PD patients; AD patients): improved
- axonal health as measured by NfL (AD and PD patients; AD patients): improved axonal health
- sAPPα, sAPPβ, Tau, p-Tau (AD and PD patients; AD patients): reduced
- ADAS-Cog 11 (AD and PD patients; AD patients, 80 mg QD for 25 +/− 2 days, vs baseline): statistically significant improvements
- WAIS coding (AD and PD patients; AD patients, 80 mg QD, vs baseline): statistically significant improvements
- UPDRS, all 4 parts (AD and PD patients; PD patients): strong trends
- WAIS coding test (AD and PD patients; PD patients): statistically significant improvements
- inflammation (AD and PD patients; treated patients, to baseline or to placebo): statistically significantly lowered

Molecule: CN(C)c1ccc2c(c1)Sc1cc(N(C)C)ccc1N2.CS(=O)(=O)O.CS(=O)(=O)O [LMTM, leuco-methylthionine dihydromesylate]
- decline on ADAS-cog11 over 12 months ([1]; above-threshold plasma levels): 1.58±0.46 units
- decline on ADAS-cog11 over 12 months ([1]; below-threshold exposure): 4.74±0.60 units

Molecule: CC(=O)Nc1nc(F)c(CN2CC[C@H](OCc3noc(C)n3)C[C@@H]2C)s1 [LY3372689]
- maximum tolerated dose (healthy volunteers [2]; SAD): not achieved
- tolerability (healthy volunteers [2]; up to the highest dose in each study): generally well tolerated
- food effect on AUC (3 mg QD, fed vs fasted): minimal effect
- food effect, decrease of Cmax (3 mg QD, fed vs fasted): 43%
- food effect, increase of tmax (3 mg QD, fed vs fasted): 5 h
- exposure (AUC and Cmax) vs dose (SAD 0.15–16 mg and MAD 1, 3, 7 mg): generally dose-proportional
- renal clearance (single or multiple dosing): not a major contributor

Molecule: CC(C)(C)NCC(O)COc1cccc2c1CC(O)C(O)C2 (centres unmarked) [nadolol]
- peripheral cardiovascular and metabolic effects of clenbuterol (patients with MCI or PD [3]; 1mg nadolol 2.5 hours before clenbuterol): mostly eliminated

Molecule: Sola: monoclonal antibody comparator (Expedition 1–3)
- ADAS-Cog effect size, slowing (AD patients; Expedition 1+2 mild individuals): 34.8%
- ADCS-ADL effect size, slowing (AD patients; Expedition 3): 15.4%
- CDR-SB effect size, slowing (AD patients; Expedition 3): 15.4%

Molecule: O=c1ccc2ccc(OCCCCN3CCN(c4cccc5sccc45)CC3)cc2[nH]1 [brexpiprazole]
- CMAI-IPA, adjusted mean difference vs placebo ([4]; Study 1, 2 mg/day (n=138) vs placebo (n=131), baseline to Week 12, MMRM): −2.34
- CMAI-IPA, adjusted mean difference vs placebo ([4]; Study 2, titrated to 2 mg/day (n=77) vs placebo (n=74), Week 12, MMRM): −2.79
- patients with CGI-S score of 1 or 2 ([5]; 2 mg/day, week 12, 140/237): 59.1%
- patients with improvement in CMAI of at least 10 points ([5]; 2 mg/day, week 12, 177/237): 74.7%
- patients with improvement on CGI-S of at least 1 point ([5]; 2 mg/day, week 12, 188/237): 79.3%
- difference vs placebo, CGI-S score of 1 or 2 ([5]; week 12, p = 0.0033): 13.5%
- difference vs placebo, CMAI improvement of at least 10 points ([5]; week 12, p = 0.0550): 8.0%
- difference vs placebo, CGI-S improvement of at least 1 point ([5]; week 12, p=0.0048): 11.4%

- decreased appetite ([6]; open-label period): 8.2%
- fall ([6]; open-label period): 6.1%
- insomnia ([6]; open-label period): 8.2%
- somnolence ([6]; open-label period): 8.2%
- urinary tract infection ([6]; open-label period): 6.1%
- weight decreased ([6]; open-label period): 8.2%
- MMSE mean change from baseline ([6]; open-label, baseline to week 12, SE 0.66): 0.3
- ESRS-A mean change from baseline ([6]; open-label, baseline to week 12, SE 0.74): −1.7
Molecule: CC(C)COc1ccc(CNC(=O)N(Cc2ccc(F)cc2)C2CCN(C)CC2)cc1 [pimavanserin]
- sustained response at weeks 8 and 12 ([6]; 34 mg, open-label period, 36 of 49): 73.5%
- patients who met relapse criteria ([6]; at the time the study was stopped, n=16): 1
- any TEAE ([6]; double-blind period): 31.3%
- serious TEAEs ([6]; double-blind period): No patients
- risk of psychosis relapse, hazard ratio vs placebo ([6]; double-blind period, Cox regression, 95% CI 0.016, 0.166): 0.052
- any TEAE ([6]; open-label period): 46.9%
- serious TEAE ([6]; open-label period): 10.2%
- complete response (SAPS-H+D score=0) ([6]; week 12, of 38 patients evaluated): 42.1%

Molecule: COc1ccc2c(c1)c(CN1CCN(C)CC1)cn2S(=O)(=O)c1ccccc1Br [masupirdine]
- NPI-12 psychosis score vs placebo ([7]; 50 mg, Week 4 & 13, p<0.05, MMRM): significant reduction
- NPI-12 psychosis score vs placebo ([7]; 100 mg, Week 26, p<0.1): trend
- effect size (Cohen’s d), agitation/aggression ([8]; 50 mg, end of 26 weeks): 0.66
- NPI-12 agitation/aggression scores ([8]; 50 & 100 mg arms, Week 13, MMRM): statistically significant (p<0.01) reduction

- CK/ATPase activity and GSH levels (healthy volunteers [9]; N=4): Only a small difference
Molecule: NC(=O)c1ccc[n+]([C@@H]2O[C@H](CO)[C@@H](O)[C@H]2O)c1 [NR, Nicotinamide Riboside]
- brain NAD+ and redox ratio (RR) (healthy volunteers [9]; N=4, preliminary): elevations

Molecule: CC(C)(C)NCC(O)c1cc(Cl)c(N)c(Cl)c1 (centres unmarked) [clenbuterol]
- increase in CBF, amygdala (patients with MCI or PD [10]; [13]): 14.3%
- increase in CBF, hippocampus (patients with MCI or PD [10]; [13]): 20.3%
- increase in CBF, thalamus (patients with MCI or PD [10]; [13]): 13.1%
- Mean Relative Difference in perfusion, hippocampus (patients with MCI or PD [10]; [14]): 13.7±5.9%
- Mean Relative Difference in perfusion, thalamus (patients with MCI or PD [10]; [14]): 16.2±5.2%
- Mean Relative Difference in perfusion, amygdala (patients with MCI or PD [10]; [15]): 8.1±11.5%
- Mean Relative Difference in perfusion, hippocampus (patients with MCI or PD [10]; [15]): 18.6±15.1%
- Mean Relative Difference in perfusion, thalamus (patients with MCI or PD [10]; [15]): 21.0±10.8%
- increase in heart rate, mean [SD] (patients with MCI or PD [3]; 80µg single dose): 12.9 [8.2] bpm
- palpitations (patients with MCI or PD [3]; [16]): 1/8
- tremor (patients with MCI or PD [3]; [16]): 4/8
- safety and tolerability (patients with MCI or PD [3]; single doses of 80µg): safe and well tolerated

Molecule: O=C([O-])[O-].[Li+].[Li+] [lithium, lithium carbonate]
- moderate or marked improvement (CGI) ([11]; 12 weeks): 36.8%
- proportion of responders ([11]; 30% reduction in NPI agitation/aggression plus psychosis and CGI much or very much improved, 12 weeks): 31.6%
- reduction vs placebo in patients with high Young Mania Rating Scale scores (β) ([11]; 95%CI 1.18 to 8.94): 5.06
- improvement on NPI delusions and irritability/lability ([11]; exploratory analyses): greater than placebo
- change in NPI agitation/aggression ([11]; lithium carbonate 150–600 mg daily, 12 weeks, linear mixed effects model): not significantly superior to placebo
- safety outcomes ([11]; vs placebo): did not differ significantly from placebo

Molecule: CN1CCC2(CC1)NCC(=O)N2Cc1ccccc1 [simufilam]
- ADAS-Cog11 mean change from baseline to Month 12 ([12]; 100 mg twice-daily oral, first 50 subjects, open-label): −3.23 ± 6.25 points
- safety and tolerability ([12]; 12 months): safe and well-tolerated
- subjects with no neuropsychiatric symptoms (NPI) ([12]; 12 months, baseline 34%): over 50%
- ADAS-Cog11 score, mean ([12]; Month 12, Day 1 mean 16.73 ± 7.86): 13.51 ± 9.20
- subjects with improved ADAS-Cog11 scores ([12]; baseline to Month 12, 50 subjects): 68%
- ADAS-Cog11 median change ([12]; baseline to Month 12, first 50 subjects): −4.0 points

B1: AL001: human monoclonal IgG1 antibody that blocks and downregulates Sortilin (antibody, chains of the INN, looked up, V domains shown)
VH: QVQLQESGPGLVKPSETLSLTCAVSGYSISSGYYWGWIRQPPGKGLEWIGTIYHSGSTYYNPSLKSRVTISVDTSKNQFSLKLSSVTAADTAVYYCARQGSIKQGYYGMDVWGQGTTVTVSS
VL: DIVMTQSPLSLPVTPGEPASISCRSSQSLLRSTGYNYLDWYLQKPGQSPQLLIYLGSNRASGVPDRFSGSGSGTDFTLKISRAEAEDVGVYYCMQQQEAPLTFGGGTKVEIK
- CSF PGRN levels (GRN mutation carriers): normalize CSF PGRN levels
